For orientation: pKi means the Ki on a negative log10 scale, so that one unit is a factor of ten.

pKi: −log10 of the molar value.

40 compounds from ChEMBL document CHEMBL1139628, “Beta-lactam compounds as apparently uncompetitive inhibitors of HIV-1 protease” (Bioorg Med Chem Lett, 2005) can be followed below.

In experiment [1] the target is Human immunodeficiency virus type 1 protease (Human immunodeficiency virus 1) (UniProt Q72874). Briefly: Percent inhibition against human immunodeficiency virus 1 protease. Conditions: concentration not given here. Further details: concentration or dose not given beside the values.
Experiment [2] shares this target. Briefly: Catalytic constant against human immunodeficiency virus typeI protease.
Experiment [3] shares this target. Briefly: Inhibitory activity against human immunodeficiency virus type I protease.
Experiment [4] concerns the target Human immunodeficiency virus type 1 protease (Human immunodeficiency virus 1, UniProt Q72874). In words: Inhibition constant against human immunodeficiency virus 1 protease.
Experiment [5] concerns the target Human immunodeficiency virus type 1 protease (Human immunodeficiency virus 1) (UniProt Q72874). Briefly: Ratio of Michaelis-Menten constant and catalytic constant against human immunodeficiency virus type I protease.
For experiment [6] the target is unchanged. Briefly: Inhibitory activity against human immunodeficiency virus typeI protease.

For the compound `CCCCNC(=O)C(Cc1ccccc1)N1CC(C)C1=O` (configuration not stated), the inhibition in experiment [1] amounted to 78%.

On to `O=C(NCc1ccccc1)C(c1ccccc1)N1C(=O)CC1c1ccccc1` (configuration not stated), for which the inhibition in experiment [1] was found to be 75%. For `COC(=O)C(Cc1ccccc1)NC(=O)C1CC(=O)N1C(C(=O)NCC(C)C)c1ccccc1` (configuration not stated), in experiment [1], the inhibition was 71%. Still for that read-out and setting: to `CC1C(=O)N(C(C(=O)NCC2CCCCC2)c2ccccc2)C1C(=O)OCc1ccccc1` (configuration not stated) belongs 92%. The compound `O=C(OCc1ccccc1)C1CC(=O)N1C(C(=O)NCC1N=Cc2cncnc21)c1ccccc1` (configuration not stated) displayed a K cat in experiment [2] of 0.126 s⁻¹. For the same compound, the inhibition in experiment [1] is 97%; in experiment [3], 60 µM. The same compound gave a pKi in experiment [4] of 4.22. Further, the Ratio in experiment [5] was found to be 0.151 mM⁻¹ s⁻¹.

Regarding `CC1CN(C(Cc2ccccc2)C(=O)NCC2N=Cc3cncnc32)C1=O` (configuration not stated), in experiment [1], the inhibition worked out at 71%. For `CCCC(C(=O)NCC1N=Cc2cncnc21)N1C(=O)CC1C(=O)OCc1ccccc1` (configuration not stated), the inhibition in experiment [1] came out at 83%. On to `COC(=O)C(Cc1ccccc1)NC(=O)C1CC(=O)N1C(Cc1ccccc1)C(=O)NCC(C)C` (configuration not stated), for which, in experiment [1], the inhibition worked out at 68%. `CCCCNC(=O)C(c1ccccc1)N1C(=O)CC1c1ccccc1` (configuration not stated): in experiment [1], the inhibition was 63%. For the compound `CC1CN(C(C(=O)NCC2N=Cc3cncnc32)c2ccccc2)C1=O` (configuration not stated), the inhibition in experiment [1] was 76%. Regarding `CC1CC(=O)N1C(C(=O)NCC1CCCCC1)c1ccccc1` (configuration not stated), in experiment [1], the inhibition came out at 83%.

Regarding `CC1CN(C(Cc2ccccc2)C(=O)NCC2CCCCC2)C1=O` (configuration not stated), the inhibition in experiment [1] was found to be 76%. In the case of `O=C(NCC1N=Cc2cncnc21)C(c1ccccc1)N1CCC1=O` (configuration not stated), in experiment [1], the inhibition was 68%. For the compound `O=C(NCC1N=Cc2cncnc21)C(c1ccccc1)N1C(=O)CC1c1ccccc1` (configuration not stated), the inhibition in experiment [1] is 78%. For the compound `O=C(NCC1CCCCC1)C(Cc1ccccc1)N1CC(O)C1=O` (configuration not stated), the inhibition in experiment [1] turned out to be 66%. Compound `COC(=O)C(Cc1ccccc1)NC(=O)C1C(O)C(=O)N1C(C(=O)NCC1N=Cc2cncnc21)c1ccccc1` (configuration not stated) showed a K cat in experiment [2] of 0.1 s⁻¹. The inhibition in experiment [1] is 97%; in experiment [3], 80 µM. The pKi in experiment [4] was 4.20. Moreover, in experiment [5], the Ratio came to 0.155 mM⁻¹ s⁻¹.

`O=C(NCC1CCCCC1)C(c1ccccc1)N1CCC1=O` (configuration not stated): the inhibition in experiment [1] is 79%. For `CCCCNC(=O)C(c1ccccc1)N1C(=O)CC1C(=O)NC(Cc1ccccc1)C(=O)OC` (configuration not stated), the inhibition in experiment [1] came to 86%. With `CCCC(C(=O)NCC1N=Cc2cncnc21)N1CCC1=O` (configuration not stated), in experiment [1], the inhibition stood at 74%.

For the compound `CCCCNC(=O)C(Cc1ccccc1)N1C(=O)CC1c1ccccc1` (configuration not stated), the inhibition in experiment [1] came out at 74%.

With `CCCCNC(=O)C(CCC)N1C(=O)CC1c1ccccc1` (configuration not stated), the inhibition in experiment [1] was determined as 93%.

Regarding `CC1CC(=O)N1C(Cc1ccccc1)C(=O)NCC1CCCCC1` (configuration not stated), the inhibition in experiment [1] amounted to 71%. As for `CC1CC(=O)N1C(Cc1ccccc1)C(=O)NCC1C=Nc2cncnc21` (configuration not stated), the inhibition in experiment [1] was determined as 62%. Regarding `COC(=O)CNC(=O)[C@H](Cc1ccccc1)N1C(=O)C[C@H]1C(=O)N[C@@H](Cc1ccccc1)C(=O)OC`, the inhibition in experiment [1] is 69%. Take `O=C(NCC1N=Cc2cncnc21)C(Cc1ccccc1)N1C(=O)CC1C(=O)OCc1ccccc1` (configuration not stated): the inhibition in experiment [1] was found to be 66%. On to `CCC[C@@H](C(=O)NCC(=O)OC)N1C(=O)C[C@H]1c1ccccc1`, for which the inhibition in experiment [1] was 68%. For the compound `CC1CC(=O)N1C(C(=O)NCc1ccccc1)c1ccccc1` (configuration not stated), the inhibition in experiment [1] amounted to 67%.

As to `CCCCNC(=O)C(c1ccccc1)N1C(=O)CC1C(=O)OCc1ccccc1` (configuration not stated), the inhibition in experiment [1] worked out at 71%. Still for that read-out and setting: to `CCCC(C(=O)NCC1CCCCC1)N1C(=O)CC1C(=O)NC(Cc1ccccc1)C(=O)OC` (configuration not stated) belongs 71%. `COC(=O)CNC(=O)C(c1ccccc1)N1C(=O)CC1C(=O)OCc1ccccc1` (configuration not stated) gave a K cat in experiment [2] of 0.144 s⁻¹. The inhibition is 1000 µM in experiment [6] and 97% in experiment [1]. Further, in experiment [4], the negative-log Ki (pKi) is 2.94. Moreover, the Ratio in experiment [5] is 0.157 mM⁻¹ s⁻¹. For `COC(=O)CNC(=O)[C@H](c1ccccc1)N1C[C@H](C)C1=O`, the inhibition in experiment [1] was 63%. On the same count and under the same terms, to `CC1CN(C(C(=O)NCc2ccccc2)c2ccccc2)C1=O` (configuration not stated) belongs 86%. Consider `CC(C)CNC(=O)C(Cc1ccccc1)N1CCC1=O` (configuration not stated), for which, in experiment [1], the inhibition is 65%. On to `COC(=O)CNC(=O)C(Cc1ccccc1)N1C(=O)CC1C(=O)OCc1ccccc1` (configuration not stated), for which the inhibition in experiment [1] was found to be 67%.

For `COC(=O)CNC(=O)[C@H](c1ccccc1)N1CCC1=O`, in experiment [1], the inhibition was determined as 70%.

Take `CCC[C@@H](C(=O)NCC(=O)OC)N1C(=O)CC1C(=O)N[C@@H](Cc1ccccc1)C(=O)OC` (some centres not stated): in experiment [1], the inhibition came out at 103%. Turning to `O=C(NCc1ccccc1)C(Cc1ccccc1)N1CCC1=O` (configuration not stated), the inhibition in experiment [1] was 65%. Consider `CC(C)CNC(=O)C(Cc1ccccc1)N1CC(C)C1=O` (configuration not stated), for which the inhibition in experiment [1] was found to be 72%. Take `CCCC(C(=O)NCC(=O)OC)N1C(=O)C(C)C1C(=O)OCc1ccccc1` (configuration not stated): the inhibition in experiment [1] amounted to 87%. The same measure, in the same setting: to `O=C(OCc1ccccc1)C1CC(=O)N1C(C(=O)NCc1ccccc1)c1ccccc1` (configuration not stated) belongs 119%.
